Experimental data published in patent US20250171438A1 (Agios Pharmaceuticals, Inc., priority 2022, published 2025).

Molecular target: T1, human PAH with the R408W mutation (Homo sapiens, UniProt P00439, R408W)
T1 construct: expressed in transfected cells
T1 sequence (P00439 1-452 R408W): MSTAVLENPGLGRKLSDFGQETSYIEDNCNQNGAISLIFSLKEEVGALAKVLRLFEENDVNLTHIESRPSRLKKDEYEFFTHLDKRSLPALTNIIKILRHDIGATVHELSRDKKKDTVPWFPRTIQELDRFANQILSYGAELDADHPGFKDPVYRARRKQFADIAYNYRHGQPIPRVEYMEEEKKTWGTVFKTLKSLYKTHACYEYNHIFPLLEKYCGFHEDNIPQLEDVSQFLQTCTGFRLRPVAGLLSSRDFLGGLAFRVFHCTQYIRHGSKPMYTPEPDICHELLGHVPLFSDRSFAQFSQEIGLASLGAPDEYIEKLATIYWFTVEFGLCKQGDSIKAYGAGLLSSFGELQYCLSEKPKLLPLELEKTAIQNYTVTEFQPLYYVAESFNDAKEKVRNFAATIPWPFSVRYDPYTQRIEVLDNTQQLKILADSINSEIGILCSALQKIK
Test: Cell Based Phenylalanine Flux Assay
Details: A375 cells expressing human R408W PAH; 24 hrs compound incubation; 13C-Tyrosine by LC-MS; average where tested multiple times; read-out: AC50

AC50 | Compound
< 500 nM | CC(C)(F)c1nnc(C(=O)N2CCc3[nH]cnc3[C@H]2c2nc3ccccc3s2)o1 [Example 1834]
1000 to 5000 nM | CC(C)(F)c1nnc(C(=O)N2CCc3[nH]cnc3[C@@H]2c2nc3c(F)cccc3s2)o1 [Example 1835, (R)-(4-(4-fluorobenzo[d]thiazol-2-yl)-6,7-dihydro-1H-imidazo[4,5-c]pyridin-5(4H)-yl)(5-(2-fluoropropan-2-yl)-1,3,4-oxadiazol-2-yl)methanone]
< 500 nM | CC(C)(F)c1nnc(C(=O)N2CCc3[nH]cnc3[C@H]2c2nc3c(F)cccc3s2)o1 [Example 1836, (S)-(4-(4-fluorobenzo[d]thiazol-2-yl)-6,7-dihydro-1H-imidazo[4,5-c]pyridin-5(4H)-yl)(5-(2-fluoropropan-2-yl)-1,3,4-oxadiazol-2-yl)methanone]
1000 to 5000 nM | O=C(C1CN(c2ccc(F)cn2)C1)N1CCc2[nH]cnc2[C@H]1c1nc2ccccc2s1 [Example 1837]
> 5000 nM | O=C(C1CN(c2ccc(F)cn2)C1)N1CCc2[nH]cnc2[C@@H]1c1nc2ccccc2s1 [Example 1838, (R)-(4-(benzo[d]thiazol-2-yl)-6,7-dihydro-1H-imidazo[4,5-c]pyridin-5(4H)-yl)(1-(5-fluoropyridin-2-yl)azetidin-3-yl)methanone]
< 500 nM | Cn1nccc1C(=O)N1CCc2[nH]cnc2[C@H]1c1nc2ccccc2s1 [Example 1839]
> 5000 nM | Cn1nccc1C(=O)N1CCc2[nH]cnc2[C@@H]1c1nc2ccccc2s1 [Example 1840, (R)-(4-(benzo[d]thiazol-2-yl)-6,7-dihydro-1H-imidazo[4,5-c]pyridin-5(4H)-yl)(1-methyl-1H-pyrazol-5-yl)methanone]
< 500 nM | Cn1cc(C(=O)N2CCc3[nH]cnc3[C@H]2c2nc3c(F)cccc3s2)c(C(F)F)n1 [Example 1841, (S)-(3-(difluoromethyl)-1-methyl-1H-pyrazol-4-yl)(4-(4-fluorobenzo[d]thiazol-2-yl)-6,7-dihydro-1H-imidazo[4,5-c]pyridin-5(4H)-yl)methanone]
1000 to 5000 nM | Cn1cc(C(=O)N2CCc3[nH]cnc3[C@@H]2c2nc3c(F)cccc3s2)c(C(F)F)n1 [Example 1842, (R)-(3-(difluoromethyl)-1-methyl-1H-pyrazol-4-yl)(4-(4-fluorobenzo[d]thiazol-2-yl)-6,7-dihydro-1H-imidazo[4,5-c]pyridin-5(4H)-yl)methanone]
< 500 nM | Cc1c(-c2nnc(C(=O)N3CCc4[nH]cnc4[C@H]3c3nc4ccccc4s3)o2)cnn1C [Example 1845]
1000 to 5000 nM | Cc1c(-c2nnc(C(=O)N3CCc4[nH]cnc4[C@@H]3c3nc4ccccc4s3)o2)cnn1C [Example 1846, (R)-(4-(benzo[d]thiazol-2-yl)-6,7-dihydro-1H-imidazo[4,5-c]pyridin-5(4H)-yl)(5-(1,5-dimethyl-1H-pyrazol-4-yl)-1,3,4-oxadiazol-2-yl)methanone]

The remaining lines, values behind:

Compound | AC50
Cn1ncnc1C(=O)N1CCc2[nH]cnc2[C@@H]1c1nc2ccccc2s1 [Example 1814, (R)-(4-(benzo[d]thiazol-2-yl)-6,7-dihydro-1H-imidazo[4,5-c]pyridin-5(4H)-yl)(1-methyl-1H-1,2,4-triazol-5-yl)methanone] | > 5000 nM
O=C(c1cc(C(F)(F)F)n[nH]1)N1CCc2[nH]cnc2[C@@H]1c1nc2c(F)cccc2s1 [Example 1815, (R)-(4-(4-fluorobenzo[d]thiazol-2-yl)-6,7-dihydro-1H-imidazo[4,5-c]pyridin-5(4H)-yl)(3-(trifluoromethyl)-1H-pyrazol-5-yl)methanone] | 1000 to 5000 nM
O=C(c1cc(C(F)(F)F)n[nH]1)N1CCc2[nH]cnc2[C@H]1c1nc2c(F)cccc2s1 [Example 1816, (S)-(4-(4-fluorobenzo[d]thiazol-2-yl)-6,7-dihydro-1H-imidazo[4,5-c]pyridin-5(4H)-yl)(3-(trifluoromethyl)-1H-pyrazol-5-yl)methanone] | 1000 to 5000 nM
O=C(c1ccnn1C(F)F)N1CCc2[nH]cnc2[C@H]1c1nc2ccccc2s1 [Example 1817] | < 500 nM
O=C(c1ccnn1C(F)F)N1CCc2[nH]cnc2[C@@H]1c1nc2ccccc2s1 [Example 1818, (R)-(4-(benzo[d]thiazol-2-yl)-6,7-dihydro-1H-imidazo[4,5-c]pyridin-5(4H)-yl)(1-(difluoromethyl)-1H-pyrazol-5-yl)methanone] | 1000 to 5000 nM
Cn1ncc(C(=O)N2CCc3[nH]cnc3[C@H]2c2nc3ccccc3s2)c1C(F)F [Example 1819] | 500 to 1000 nM
Cn1ncc(C(=O)N2CCc3[nH]cnc3[C@@H]2c2nc3ccccc3s2)c1C(F)F [Example 1820, (R)-(4-(benzo[d]thiazol-2-yl)-6,7-dihydro-1H-imidazo[4,5-c]pyridin-5(4H)-yl)(5-(difluoromethyl)-1-methyl-1H-pyrazol-4-yl)methanone] | > 5000 nM
Cn1cc(C(=O)N2CCc3[nH]cnc3[C@H]2c2nc3ccccc3s2)c(C(F)F)n1 [Example 1821] | < 500 nM
Cn1cc(C(=O)N2CCc3[nH]cnc3[C@@H]2c2nc3ccccc3s2)c(C(F)F)n1 [Example 1822, (R)-(4-(benzo[d]thiazol-2-yl)-6,7-dihydro-1H-imidazo[4,5-c]pyridin-5(4H)-yl)(3-(difluoromethyl)-1-methyl-1H-pyrazol-4-yl)methanone] | 1000 to 5000 nM
O=C(c1nnc(-c2cnn(C(F)F)c2)o1)N1CCc2[nH]cnc2[C@@H]1c1nc2c(F)cccc2s1 [Example 1823, (R)-(5-(1-(difluoromethyl)-1H-pyrazol-4-yl)-1,3,4-oxadiazol-2-yl)(4-(4-fluorobenzo[d]thiazol-2-yl)-6,7-dihydro-1H-imidazo[4,5-c]pyridin-5(4H)-yl)methanone] | 1000 to 5000 nM
O=C(c1nnc(-c2cnn(C(F)F)c2)o1)N1CCc2[nH]cnc2[C@H]1c1nc2c(F)cccc2s1 [Example 1824, (S)-(5-(1-(difluoromethyl)-1H-pyrazol-4-yl)-1,3,4-oxadiazol-2-yl)(4-(4-fluorobenzo[d]thiazol-2-yl)-6,7-dihydro-1H-imidazo[4,5-c]pyridin-5(4H)-yl)methanone] | < 500 nM
Cn1ccc(-c2nnc(C(=O)N3CCc4[nH]cnc4[C@@H]3c3nc4c(F)cccc4s3)o2)n1 [Example 1825, (R)-(4-(4-fluorobenzo[d]thiazol-2-yl)-6,7-dihydro-1H-imidazo[4,5-c]pyridin-5(4H)-yl)(5-(1-methyl-1H-pyrazol-3-yl)-1,3,4-oxadiazol-2-yl)methanone] | 500 to 1000 nM
Cn1ccc(-c2nnc(C(=O)N3CCc4[nH]cnc4[C@H]3c3nc4c(F)cccc4s3)o2)n1 [Example 1826, (S)-(4-(4-fluorobenzo[d]thiazol-2-yl)-6,7-dihydro-1H-imidazo[4,5-c]pyridin-5(4H)-yl)(5-(1-methyl-1H-pyrazol-3-yl)-1,3,4-oxadiazol-2-yl)methanone] | < 500 nM
O=C(c1nnc(-c2cnn(C3CCC3)c2)o1)N1CCc2[nH]cnc2[C@@H]1c1nc2ccccc2s1 [Example 1827, (R)-(4-(benzo[d]thiazol-2-yl)-6,7-dihydro-1H-imidazo[4,5-c]pyridin-5(4H)-yl)(5-(1-cyclobutyl-1H-pyrazol-4-yl)-1,3,4-oxadiazol-2-yl)methanone] | 1000 to 5000 nM
O=C(c1nnc(-c2cnn(C3CCC3)c2)o1)N1CCc2[nH]cnc2[C@H]1c1nc2ccccc2s1 [Example 1828] | < 500 nM
O=C(c1nnc(-c2ccc(C(F)(F)F)cn2)o1)N1CCc2[nH]cnc2[C@@H]1c1nc2ccccc2s1 [Example 1829, (R)-(4-(benzo[d]thiazol-2-yl)-6,7-dihydro-1H-imidazo[4,5-c]pyridin-5(4H)-yl)(5-(5-(trifluoromethyl)pyridin-2-yl)-1,3,4-oxadiazol-2-yl)methanone] | 1000 to 5000 nM
O=C(c1nnc(-c2ccc(C(F)(F)F)cn2)o1)N1CCc2[nH]cnc2[C@H]1c1nc2ccccc2s1 [Example 1830] | 500 to 1000 nM
O=C(c1oc(COC(F)(F)F)nc1C(F)F)N1CCc2[nH]cnc2[C@H]1c1nc2ccccc2s1 [Example 1831] | < 500 nM
O=C(c1oc(COC(F)(F)F)nc1C(F)F)N1CCc2[nH]cnc2[C@@H]1c1nc2ccccc2s1 [Example 1832, (R)-(4-(benzo[d]thiazol-2-yl)-6,7-dihydro-1H-imidazo[4,5-c]pyridin-5(4H)-yl)(4-(difluoromethyl)-2-((trifluoromethoxy)methyl)oxazol-5-yl)methanone] | 1000 to 5000 nM
CC(C)(F)c1nnc(C(=O)N2CCc3[nH]cnc3[C@@H]2c2nc3ccccc3s2)o1 [Example 1833, (R)-(4-(benzo[d]thiazol-2-yl)-6,7-dihydro-1H-imidazo[4,5-c]pyridin-5(4H)-yl)(5-(2-fluoropropan-2-yl)-1,3,4-oxadiazol-2-yl)methanone] | 1000 to 5000 nM
O=C(c1nnc(-c2cnn(CC(F)(F)F)c2)o1)N1CCc2[nH]cnc2[C@@H]1c1nc2c(F)cccc2s1 [Example 1843, (R)-(4-(4-fluorobenzo[d]thiazol-2-yl)-6,7-dihydro-1H-imidazo[4,5-c]pyridin-5(4H)-yl)(5-(1-(2,2,2-trifluoroethyl)-1H-pyrazol-4-yl)-1,3,4-oxadiazol-2-yl)methanone] | 1000 to 5000 nM
O=C(c1nnc(-c2cnn(CC(F)(F)F)c2)o1)N1CCc2[nH]cnc2[C@H]1c1nc2c(F)cccc2s1 [Example 1844, (S)-(4-(4-fluorobenzo[d]thiazol-2-yl)-6,7-dihydro-1H-imidazo[4,5-c]pyridin-5(4H)-yl)(5-(1-(2,2,2-trifluoroethyl)-1H-pyrazol-4-yl)-1,3,4-oxadiazol-2-yl)methanone] | 500 to 1000 nM
